Assay: recombinant UMI read abundance after kanamycin selection (control-corrected) (log10(CPM+1)); higher = more efficient recombination; extreme values may be limits of the assay; sequences stand for … in AGTGCAGAGAAAATCGGCCAGTTTTCTCTGCCTGCAGTCCGCATGCCGTGGGACCCCTTGGGTTCTAACCTGTTGCCTAGATTTATGCAGCGGACTGCCTTTCTCCCAAAGTGATAAACCGG…AGGTTGGTTTCACT; site = the 11-nt donor
Procedure, shortened: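 Pooled Escherichia coli screen of donor and donor-binding-loop pairs for the IS621 bridge recombinase. Each pair sits with a 12-nt UMI on a plasmid carrying a promoterless kanamycin gene. The library was co-electroporated with a target plasmid encoding a fixed target and T7-inducible recombinase, then plated with IPTG (0.07 mM) plus kanamycin, or unselected, each in two replicates. Recombinant UMIs were PCR-amplified across the donor–target junction and sequenced. Counts became CPM, averaged over replicates, scaled by control-derived factors and reported as log10(CPM+1).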
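Note: IS621 bridge recombinase in Escherichia coli cells against a fixed T5 target plasmid.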

| Sequence | recombinant UMI read abundance (log10) |
| --- | --- |
| CCGAAGCCATGGACCGGTTTTCCCGGTAATCCGTATTTGGG (site ACGAAGCCTCC) | 0.0168 |
| CCGAAGCCATGGACCGGTTTTCCCGGTAATCCGTATTTGGG (site CCGAAGCCTCC) | 0.0077 |
| CCGAAGCCATGGACCGGTTTTCCCGGTAATCCGTATTTGGG (site GCGAAGCCTCC) | 0.0226 |
| CCGAAGCCATGGACCGGTTTTCCCGGTAATCCGTATTTGGG (site TCGAAGCCTCC) | 0.0139 |
| CCGAGTTCATGGACCGGTTTTCCCGGTAATCCGTATTTGTT (site CCGAGTTCTAA) | 0.501 |
| CCGCCCGCATGGACCGGTTTTCCCGGTAATCCGTATTTGTA (site CCGCCCGCTTA) | 1.02 |
| CCGGAACCATGGACCGGTTTTCCCGGTAATCCGTATTTGAT (site CAGGAACCTAT) | 0 |
| CCGGAACCATGGACCGGTTTTCCCGGTAATCCGTATTTGAT (site CCGGAACCTAT) | 0 |
| CCGGAACCATGGACCGGTTTTCCCGGTAATCCGTATTTGAT (site CGGGAACCTAT) | 0 |
| CCGGAACCATGGACCGGTTTTCCCGGTAATCCGTATTTGAT (site CTGGAACCTAT) | 0.00208 |
| CCGGGACCATGGACCGGTTTTCCCGGTAATCCGTATTTGAG (site CCGGGACCTCT) | 0 |
| CCGGGCCCATGGACCGGTTTTCCCGGTAATCCGTATTTGTA (site CCGGGCCCTTA) | 0.0269 |
| CCGTAATCATGGACCGGTTTTCCCGGTAATCCGTATTTGCG (site CCGTAATCTCG) | 1.7 |
| CCGTATACATGGACCGGTTTTCCCGGTAATCCGTATTTGAT (site CCGTATACTAT) | 0.449 |
| CCGTCATCATGGACCGGTTTTCCCGGTAATCCGTATTTGAT (site CCGTCATCTAT) | 0.00671 |
| CCGTCTGCATGGACCGGTTTTCCCGGTAATCCGTATTTGCT (site CCGTCTGCTAG) | 0.241 |
| CCGTGTACATGGACCGGTTTTCCCGGTAATCCGTATTTGCT (site CCGTATACTAG) | 0.0403 |
| CCGTGTACATGGACCGGTTTTCCCGGTAATCCGTATTTGCT (site CCGTCTACTAG) | 0.00869 |
| CCGTGTACATGGACCGGTTTTCCCGGTAATCCGTATTTGCT (site CCGTGTACTAG) | 0.439 |
| CCGTGTACATGGACCGGTTTTCCCGGTAATCCGTATTTGCT (site CCGTTTACTAG) | 0 |
| CCGTGTGCATGGACCGGTTTTCCCGGTAATCCGTATTTGAC (site CCGTGTGCTGT) | 1 |
| CCGTTAACATGGACCGGTTTTCCCGGTAATCCGTATTTGTG (site CCGTTAACTCA) | 0.0455 |
| CCGTTAACATGGACCGGTTTTCCCGGTAATCCGTATTTGTG (site CCGTTACCTCA) | 0.0226 |
| CCGTTAACATGGACCGGTTTTCCCGGTAATCCGTATTTGTG (site CCGTTAGCTCA) | 0.182 |
| CCGTTAACATGGACCGGTTTTCCCGGTAATCCGTATTTGTG (site CCGTTATCTCA) | 0.00955 |

| Sequence | recombinant UMI read abundance (log10) |
| --- | --- |
| CCGTTAGCATGGACCGGTTTTCCCGGTAATCCGTATTTGGG (site CCGTTAGCTCA) | 0.0109 |
| CCGTTAGCATGGACCGGTTTTCCCGGTAATCCGTATTTGGG (site CCGTTAGCTCC) | 0.00956 |
| CCGTTAGCATGGACCGGTTTTCCCGGTAATCCGTATTTGGG (site CCGTTAGCTCG) | 0 |
| CCGTTAGCATGGACCGGTTTTCCCGGTAATCCGTATTTGGG (site CCGTTAGCTCT) | 0 |
| CCGTTTACATGGACCGGTTTTCCCGGTAATCCGTATTTGCT (site ACGTTTACTAG) | 0 |
| CCGTTTACATGGACCGGTTTTCCCGGTAATCCGTATTTGCT (site CAGTTTACTAG) | 0 |
| CCGTTTACATGGACCGGTTTTCCCGGTAATCCGTATTTGCT (site CCATTTACTAG) | 0 |
| CCGTTTACATGGACCGGTTTTCCCGGTAATCCGTATTTGCT (site CCCTTTACTAG) | 0 |
| CCGTTTACATGGACCGGTTTTCCCGGTAATCCGTATTTGCT (site CCGATTACTAG) | 0 |
| CCGTTTACATGGACCGGTTTTCCCGGTAATCCGTATTTGCT (site CCGCTTACTAG) | 0 |
| CCGTTTACATGGACCGGTTTTCCCGGTAATCCGTATTTGCT (site CCGGTTACTAG) | 0 |
| CCGTTTACATGGACCGGTTTTCCCGGTAATCCGTATTTGCT (site CCGTATACTAG) | 0 |
| CCGTTTACATGGACCGGTTTTCCCGGTAATCCGTATTTGCT (site CCGTCTACTAG) | 0 |
| CCGTTTACATGGACCGGTTTTCCCGGTAATCCGTATTTGCT (site CCGTGTACTAG) | 0 |
| CCGTTTACATGGACCGGTTTTCCCGGTAATCCGTATTTGCT (site CCGTTAACTAG) | 0 |
| CCGTTTACATGGACCGGTTTTCCCGGTAATCCGTATTTGCT (site CCGTTCACTAG) | 0.00422 |
| CCGTTTACATGGACCGGTTTTCCCGGTAATCCGTATTTGCT (site CCGTTGACTAG) | 0 |
| CCGTTTACATGGACCGGTTTTCCCGGTAATCCGTATTTGCT (site CCGTTTACTAA) | 0 |
| CCGTTTACATGGACCGGTTTTCCCGGTAATCCGTATTTGCT (site CCGTTTACTAC) | 0 |
| CCGTTTACATGGACCGGTTTTCCCGGTAATCCGTATTTGCT (site CCGTTTACTAG) | 0 |
| CCGTTTACATGGACCGGTTTTCCCGGTAATCCGTATTTGCT (site CCGTTTACTAT) | 0 |
| CCGTTTACATGGACCGGTTTTCCCGGTAATCCGTATTTGCT (site CCGTTTACTCG) | 0 |
| CCGTTTACATGGACCGGTTTTCCCGGTAATCCGTATTTGCT (site CCGTTTACTGG) | 0 |
| CCGTTTACATGGACCGGTTTTCCCGGTAATCCGTATTTGCT (site CCGTTTACTTG) | 0 |
| CCGTTTACATGGACCGGTTTTCCCGGTAATCCGTATTTGCT (site CCGTTTCCTAG) | 0 |

| Sequence | recombinant UMI read abundance (log10) |
| --- | --- |
| CCGTTTACATGGACCGGTTTTCCCGGTAATCCGTATTTGCT (site CCGTTTGCTAG) | 0.00881 |
| CCGTTTACATGGACCGGTTTTCCCGGTAATCCGTATTTGCT (site CCGTTTTCTAG) | 0 |
| CCGTTTACATGGACCGGTTTTCCCGGTAATCCGTATTTGCT (site CCTTTTACTAG) | 0 |
| CCGTTTACATGGACCGGTTTTCCCGGTAATCCGTATTTGCT (site CGGTTTACTAG) | 0 |
| CCGTTTACATGGACCGGTTTTCCCGGTAATCCGTATTTGCT (site CTGTTTACTAG) | 0 |
| CCGTTTACATGGACCGGTTTTCCCGGTAATCCGTATTTGCT (site GCGTTTACTAG) | 0 |
| CCGTTTACATGGACCGGTTTTCCCGGTAATCCGTATTTGCT (site TCGTTTACTAG) | 0 |
| CCGTTTCCATGGACCGGTTTTCCCGGTAATCCGTATTTGCT (site CCGTTTACTAG) | 0 |
| CCGTTTCCATGGACCGGTTTTCCCGGTAATCCGTATTTGCT (site CCGTTTCCTAG) | 0 |
| CCGTTTCCATGGACCGGTTTTCCCGGTAATCCGTATTTGCT (site CCGTTTGCTAG) | 0 |
| CCGTTTCCATGGACCGGTTTTCCCGGTAATCCGTATTTGCT (site CCGTTTTCTAG) | 0 |
| CCTAAAACATGGACCGGTTTTCCCGGTAATCCGTATTTGAT (site CCTAAAACTAT) | 0 |
| CCTAAAACATGGACCGGTTTTCCCGGTAATCCGTATTTGAT (site CCTAAACCTAT) | 0.00551 |
| CCTAAAACATGGACCGGTTTTCCCGGTAATCCGTATTTGAT (site CCTAAAGCTAT) | 0.00636 |
| CCTAAAACATGGACCGGTTTTCCCGGTAATCCGTATTTGAT (site CCTAAATCTAT) | 0 |
| CCTAAAACATGGACCGGTTTTCCCGGTAATCCGTATTTGGC (site CCTAAAACTGC) | 0 |
| CCTAAAACATGGACCGGTTTTCCCGGTAATCCGTATTTGGC (site CCTAACACTGC) | 0 |
| CCTAAAACATGGACCGGTTTTCCCGGTAATCCGTATTTGGC (site CCTAAGACTGC) | 0 |
| CCTAAAACATGGACCGGTTTTCCCGGTAATCCGTATTTGGC (site CCTAATACTGC) | 0 |
| CCTAAAGCATGGACCGGTTTTCCCGGTAATCCGTATTTGGT (site CCTAAAGCTAA) | 0.00229 |
| CCTAAAGCATGGACCGGTTTTCCCGGTAATCCGTATTTGGT (site CCTAAAGCTAC) | 0 |
| CCTAAAGCATGGACCGGTTTTCCCGGTAATCCGTATTTGGT (site CCTAAAGCTAG) | 0 |
| CCTAAAGCATGGACCGGTTTTCCCGGTAATCCGTATTTGGT (site CCTAAAGCTAT) | 0 |
| CCTAATACATGGACCGGTTTTCCCGGTAATCCGTATTTGAC (site CCTAATACTGA) | 0 |
| CCTAATACATGGACCGGTTTTCCCGGTAATCCGTATTTGAC (site CCTAATACTGC) | 0 |

— the supplement of paper PMC11208160
